One assay has as its target T1, human CD38 (Homo sapiens, UniProt P28907).
T1 sequence (P28907 1-300): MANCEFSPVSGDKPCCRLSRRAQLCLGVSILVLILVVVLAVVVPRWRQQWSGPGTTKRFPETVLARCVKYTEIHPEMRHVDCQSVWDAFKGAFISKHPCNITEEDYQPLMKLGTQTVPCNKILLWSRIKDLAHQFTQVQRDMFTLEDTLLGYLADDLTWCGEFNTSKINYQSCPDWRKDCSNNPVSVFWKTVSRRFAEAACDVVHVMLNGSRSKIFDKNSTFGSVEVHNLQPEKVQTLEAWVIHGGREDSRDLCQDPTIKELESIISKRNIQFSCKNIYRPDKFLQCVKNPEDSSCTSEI
The experiment in a line: human recombinant CD38 enzyme assay (hydrolysis of NAD+). The format is biochemical. Conditions: human recombinant CD38, 0.4 nM enzyme, 62.5 μM NAD+; read-out: hCD38 BioChem IC50. Summed up: (§1)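 Residual substrate after a one-hour room-temperature incubation of recombinant CD38 with NAD+ and test compound is measured by an ADH/diaphorase coupled resorufin signal (540 nm excitation, 590 nm emission); reduced NAD+ consumption reflects inhibition.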

The target of a further assay is T2, mouse CD38 (Mus musculus, UniProt P56528).
T2 sequence (P56528 1-304): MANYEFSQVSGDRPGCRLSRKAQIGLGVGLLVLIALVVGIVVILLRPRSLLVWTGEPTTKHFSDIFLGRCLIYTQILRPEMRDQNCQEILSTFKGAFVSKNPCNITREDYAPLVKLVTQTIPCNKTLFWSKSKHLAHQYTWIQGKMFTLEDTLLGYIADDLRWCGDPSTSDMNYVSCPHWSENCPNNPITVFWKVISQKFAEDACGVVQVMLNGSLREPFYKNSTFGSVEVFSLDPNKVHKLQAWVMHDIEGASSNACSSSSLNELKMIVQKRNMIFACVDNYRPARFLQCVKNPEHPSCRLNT
The experiment in a line: mouse recombinant CD38 enzyme assay (hydrolysis of NAD+). Format: biochemical. Conditions: read-out: mCD38 BioChem IC50. Summed up: as §1

Assay [1] addresses T3, endogenous CD38 in HL60 cells (Homo sapiens, UniProt P28907).
T3 construct: endogenous in cells; host or cells: HL60 (leukemic cells, treated with all-trans retinoic acid)
T3 sequence (P28907 1-300): T1 sequence (P28907 1-300)
The experiment in a line: cellular CD38 assay in HL60 cells (cellular NAD levels). The format is cell-based. Conditions: all-trans retinoic acid, 24 hours, read-out: hCD38 HL60 ATRA NAD Cell Diaphorase IC50. Summed up:
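Endogenous CD38 inhibition is inferred from NAD levels in HL60 cells after 24 h compound exposure at 20000 cells per well. A lytic cycling readout (0.2 U/mL diaphorase, 0.8 U/mL alcohol dehydrogenase, resazurin, FMN, ethanol, 0.2% Triton X-100, Tris/EDTA pH 8.4) ran 60 min at ambient temperature. Resorufin fluorescence was read at 540/590 nm.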

Turning to `O=C(Nc1ccc(C(F)F)nc1)c1nccc(-n2ccnc2)n1` [Compound 144, N-(6-(difluoromethyl)pyridin-3-yl)-4-(1H-imidazol-1-yl)pyrimidine-2-carboxamide], the IC50 (in general, the concentration at which inhibition is half-maximal) on human CD38 stood at 3 nM; on mouse CD38 it was 14 nM; in assay [1], 129 nM.

As for `CC(C)(O)c1cc(C(=O)Nc2ccc(C(F)F)nc2)nc(-n2ccnc2)n1` [Compound 158, N-(6-(difluoromethyl)pyridin-3-yl)-6-(2-hydroxypropan-2-yl)-2-(1H-imidazol-1-yl)pyrimidine-4-carboxamide], the IC50 on human CD38 was found to be 228 nM; on mouse CD38, 185 nM; in assay [1] it was 3980 nM.

For the compound `COCCO[C@H]1CC[C@H](NC(=O)c2nc(-n3ccnc3)ccc2F)CC1` [Compound 43, 3-fluoro-6-(1H-imidazol-1-yl)-N-(4-(2-methoxyethoxy)cyclohexyl)picolinamide], the values for the IC50 (at human CD38; at mouse CD38; in assay [1]) were 200 nM, 32 nM and 7490 nM, respectively.

Consider `O=C(Nc1cccnc1)c1ccnc(-n2ccnc2)c1` [Compound 10, 2-(1H-imidazol-1-yl)-N-(pyridin-3-yl)isonicotinamide], for which the IC50 at human CD38 was 1190 nM; at mouse CD38, 433 nM; in assay [1], 4350 nM.

As for `COCCO[C@H]1CC[C@H](NC(=O)c2cc(C)nc(-n3ccnc3)n2)CC1` [Compound 156, 2-(1H-imidazol-1-yl)-N-((1r,4r)-4-(2-methoxyethoxy)cyclohexyl)-6-methylpyrimidine-4-carboxamide], the figures for the IC50 (on human CD38; at mouse CD38; in assay [1]) were 30 nM, 4 nM and 2300 nM, respectively.

Take `O=C(Nc1ccnc(C(F)F)c1)c1cccc(-n2ccnc2)n1` [Compound 39, N-(2-(difluoromethyl)pyridin-4-yl)-6-(1H-imidazol-1-yl)picolinamide]: the IC50 on human CD38 came to 6 nM; on mouse CD38, 4 nM; in assay [1] it was 298 nM.

With `Cc1ccc(NC(=O)c2cccc(-n3ccnc3)n2)cn1` [Compound 20, 6-(1H-imidazol-1-yl)-N-(6-methylpyridin-3-yl)picolinamide], the IC50 was 9 nM on human CD38, 8 nM at mouse CD38 and 365 nM in assay [1].

As to `COCCO[C@H]1CC[C@H](NC(=O)c2cccc(-n3ccnc3)n2)CC1` [Compound 14, 6-(1H-imidazol-1-yl)-N-(4-(2-methoxyethoxy)cyclohexyl)picolinamide], the IC50 is 91 nM at human CD38, 17 nM on mouse CD38 and 3290 nM in assay [1].

Consider `O=C(N[C@H]1CC[C@H](C(F)F)CC1)c1cccc(-n2ccnc2)n1` [Compound 64, N-(4-(difluoromethyl)cyclohexyl)-6-(1H-imidazol-1-yl)picolinamide], for which the results for the IC50 (on human CD38; at mouse CD38; in assay [1]) were 34 nM, 7 nM and 2420 nM, respectively.

Take `Cn1cncc1-c1cccc(C(=O)Nc2cccnc2)n1` [Compound 59, 6-(1-Methyl-1H-imidazol-5-yl)-N-(pyridin-3-yl)picolinamide]: the IC50 on human CD38 was determined as 25 nM; on mouse CD38, 18 nM; in assay [1], 769 nM.

For `Cc1ncc(-c2cncn2C)nc1C(=O)Nc1ccc(C(F)(F)F)nc1` [Compound 296, 3-methyl-6-(1-methyl-1H-imidazol-5-yl)-N-(6-(trifluoromethyl)pyridin-3-yl)pyrazine-2-carboxamide], the figures for the IC50 (at human CD38; at mouse CD38; in assay [1]) were 8.7 nM, 9.9 nM and 1140 nM, respectively.

Consider `COCCO[C@H]1CC[C@H](NC(=O)c2cc(C(F)(F)F)nc(-c3cncn3C)n2)CC1` [Compound 165, N-((1r,4r)-4-(2-methoxyethoxy)cyclohexyl)-2-(1-methyl-1H-imidazol-5-yl)-6-(trifluoromethyl)pyrimidine-4-carboxamide], for which the IC50 on human CD38 is 19 nM; on mouse CD38, 1 nM; in assay [1], 2980 nM.

Take `COc1cc(C(=O)Nc2ccc(C(F)F)nc2)nc(-n2ccnc2)c1` [Compound 187, N-(6-(difluoromethyl)pyridin-3-yl)-6-(1H-imidazol-1-yl)-4-methoxypicolinamide]: the values for the IC50 (on human CD38; at mouse CD38; in assay [1]) were 3.1 nM, 1.9 nM and 253 nM, respectively.

Take `Cn1cncc1-c1ccnc(C(=O)N[C@H]2CC[C@H](CO)CC2)n1` [Compound 259, N-((1r,4r)-4-(hydroxymethyl)cyclohexyl)-4-(1-methyl-1H-imidazol-5-yl)pyrimidine-2-carboxamide]: the IC50 on human CD38 came to 46.1 nM; at mouse CD38, 15.6 nM; in assay [1], 2280 nM.

As for `CO[C@H]1CC[C@H](NC(=O)c2nc(C)cc(-c3cncn3C)n2)CC1` [Compound 191, N-((1r,4r)-4-methoxycyclohexyl)-4-methyl-6-(1-methyl-1H-imidazol-5-yl)pyrimidine-2-carboxamide], the figures for the IC50 (on human CD38; on mouse CD38; in assay [1]) were 35.3 nM, 4.5 nM and 3280 nM, respectively.

Take `Cc1cc(-c2cncn2C)nc(C(=O)Nc2ccc(C(F)F)nc2)n1` [Compound 202, N-(6-(Difluoromethyl)pyridin-3-yl)-4-methyl-6-(1-methyl-1H-imidazol-5-yl)pyrimidine-2-carboxamide]: the IC50 on human CD38 was 2.8 nM; at mouse CD38, 1.1 nM; in assay [1] it was 229 nM.

For `Cc1cc(C(=O)N[C@H]2CC[C@H](C)CC2)nc(-c2cncn2C)n1` [Compound 123, 6-methyl-2-(1-methyl-1H-imidazol-5-yl)-N-((1r,4r)-4-methylcyclohexyl)pyrimidine-4-carboxamide], the IC50 on human CD38 worked out at 10 nM; on mouse CD38 it was 1 nM; in assay [1], 952 nM.

Take `COc1cc(C(=O)N[C@H]2CC[C@H](OC)CC2)nc(-c2cncs2)n1` [Compound 130, 6-methoxy-N-((1r,4r)-4-methoxycyclohexyl)-2-(thiazol-5-yl)pyrimidine-4-carboxamide]: the IC50 on human CD38 was found to be 488 nM; at mouse CD38 it was 44 nM; in assay [1], 10300 nM.

For the compound `CO[C@H]1CC[C@H](NC(=O)c2nc(C)cc(-n3ccnc3)n2)CC1` [Compound 207, 4-(1H-imidazol-1-yl)-N-((1r,4r)-4-methoxycyclohexyl)-6-methylpyrimidine-2-carboxamide], the concentration for half-maximal inhibition (IC50) was determined as 24.8 nM at human CD38, 7.2 nM at mouse CD38 and 3690 nM in assay [1].

On to `Cc1ncccc1NC(=O)c1cccc(-n2ccnc2)n1` [Compound 27, 6-(1H-imidazol-1-yl)-N-(2-methylpyridin-3-yl)picolinamide], for which the IC50 at human CD38 worked out at 448 nM; on mouse CD38, 64 nM; in assay [1] it was 10400 nM.

For the compound `COC(=O)N1CCC(NC(=O)c2cccc(-n3ccnc3)n2)CC1` [Compound 45, methyl 4-(6-(1H-imidazol-1-yl)picolinamido)piperidine-1-carboxylate], the figures for the IC50 (at human CD38; on mouse CD38; in assay [1]) were 82 nM, 44 nM and 4690 nM, respectively.

On to `C[C@H]1CC[C@H](NC(=O)c2nccc(-n3ccnc3)n2)CC1` [Compound 146, 4-(1H-imidazol-1-yl)-N-((1r,4r)-4-methylcyclohexyl)pyrimidine-2-carboxamide], for which the IC50 is 62 nM at human CD38, 23 nM at mouse CD38 and 1700 nM in assay [1].

In the case of `O=C(Nc1ccc(F)c(F)c1)c1cccc(-n2ccnc2)n1` [Compound 34, N-(3,4-difluorophenyl)-6-(1H-imidazol-1-yl)picolinamide], the IC50 at human CD38 turned out to be 4 nM; on mouse CD38, 6 nM; in assay [1] it was 509 nM.

Regarding `COc1cc(C(=O)Nc2ccc(C(F)F)nc2)nc(-c2cncn2C)c1` [Compound 225, N-(6-(difluoromethyl)pyridin-3-yl)-4-methoxy-6-(1-methyl-1H-imidazol-5-yl)picolinamide], the values for the IC50 (at human CD38; on mouse CD38; in assay [1]) were 7 nM, 3.8 nM and 1080 nM, respectively.

`CO[C@H]1CC[C@H](NC(=O)c2cc(C)nc(-c3cncn3C)n2)CC1` [Compound 121, N-((1r,4r)-4-methoxycyclohexyl)-6-methyl-2-(1-methyl-1H-imidazol-5-yl)pyrimidine-4-carboxamide]: the figures for the IC50 (at human CD38; at mouse CD38; in assay [1]) were 14 nM, 1 nM and 1050 nM, respectively.

For the compound `Cc1cc(C(=O)N[C@H]2CC[C@H](C(F)F)CC2)nc(-c2cncn2C)c1` [Compound 99, N-(4-(difluoromethyl)cyclohexyl)-4-methyl-6-(1-methyl-1H-imidazol-5-yl)picolinamide], the IC50 amounted to 80 nM at human CD38, 7 nM at mouse CD38 and 5130 nM in assay [1].

Values taken from patent US20230116972A1, “CD38 MODULATORS AND METHODS OF USE THEREOF” (Cytokinetics, Inc., priority 2021, published 2023).
